Results taken from patent US12358907B2, “Substituted pyrrolidine amides III” (GRÜNENTHAL GMBH, priority 2019, dated 2025).

Each compound was assayed against glucocorticoid receptor (GAL4 DBD-GR) (Homo sapiens (Human), UniProt P04150) (assay: GR cell-based assays (GRE agonist / GRE antagonist), CHO-Gal4/GR luciferase reporter). Settings: read-out: IC50 or EC50.
Chain of glucocorticoid receptor (GAL4 DBD-GR) (P04150 524-758): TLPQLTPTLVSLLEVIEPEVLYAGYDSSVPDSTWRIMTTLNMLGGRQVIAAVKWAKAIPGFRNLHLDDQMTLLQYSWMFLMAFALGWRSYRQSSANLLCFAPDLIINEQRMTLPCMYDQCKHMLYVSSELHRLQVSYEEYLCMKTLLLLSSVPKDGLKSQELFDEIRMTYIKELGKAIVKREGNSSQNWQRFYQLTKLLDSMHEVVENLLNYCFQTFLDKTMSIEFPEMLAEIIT
Source text: Potential selective glucocorticoid receptor modulators of this intervention can be tested for modulation of the activity of the glucocorticoid receptor using cell-based assays. These assays involve a Chinese hamster ovary (CHO) cell line which contains fragments of the glucocorticoid receptor as well as fusion proteins. The glucocorticoid receptor fragments used are capable of binding the ligand (e.g. beclomethasone) to identify molecules that compete for binding with glucocorticoid receptor ligands. In more detail, the glucocorticoid receptor ligand binding domain is fused to the DNA binding domain (DBD) of the transcription factor GAL4 (GAL4 DBD-GR) and is stably integrated into a CHO cell line containing a GAL4-UAS-Luciferase reporter construct. […] After cell lysis the luminescence that is produced by luciferase after addition of the substrate is detected and EC50 or IC50 values can be calcuated. Engagement of molecules which induce gene expression via glucocortocoid receptor binding to the DNA leads to expression of the luciferase gene under the control of the fusion protein GAL4 DBD-GR and therefore to a dose-dependent increase of the luminescence signal. Binding of molecules which repress beclomethasone-induced gene expression of the luciferase gene under the control of the fusion protein GAL4 DBD-GR leads to a dose-dependent reduction of the luminescence signal.
The reporter cell line CHO-Gal4/GR consisted of a chinese hamster ovary (CHO) cell line (Leibniz Institute DSMZ—German Collection of Microorganisms and Cell Cultures GmbH: ACC-110) containing a firefly luciferase gene under the control of the GR ligand binding domain fused to the DNA binding domain (DBD) of GAL4 (GAL4 DBD-GR) stably integrated into CHO cells. This cell line was established by stable transfection of CHO cells with a GAL4-UAS-Luciferase reporter construct. In a subsequent step the ligand binding domain of the GR cloned into pIRES2-EGFP-GAL4 containing the DNA binding domain of GAL4 from pFA-AT2 was transfected. This fusion construct activated firefly luciferase expression under the control of a multimerized GAL4 upstream activation sequence (UAS). The signal of the emitted luminescence was recorded by the FLIPR^TETRA. This allowed for specific detection of ligand-induced activation of the GR and therefore for the identification of compounds with agonistic properties. The GAL4/UAS reporter was premixed with a vector that constitutively expressed Renilla luciferase, which served as an internal positive control for transfection efficiency.
The complete culture medium for the assay was: • DMEM F-12 (1:1) MIXTURE (LONZA cat. No: BE04-687F/U1) 500 mL • 5 mL of 100 mM Sodium Pyruvate (LONZA cat. No: BE12-115E) • 25 mL of 7.5% Sodium Bicarbonate (LONZA cat. No BE17-613E) • 6.5 mL of 1 M Hepes (LONZA cat. No: BE17-737E) • 5 mL of 100× Penicillin/Streptomycin (LONZA cat. No DE17-602E) • 50 mL of Fetal Bovine Serum (Euroclone cat. No ECS 0180L) • 0.25 mL of 10 mg/mL Puromycin (InvivoGen cat.: ant-pr-1) • 0.5 mL of 100 mg/mL Zeocin (InvivoGen cat.: ant-zn-1)
Cryo-preserved CHO-Gal4/GR cells were suspended in complete medium and 5000 cells/25 μl/well were seeded into the wells of 384-well polystyrene assay plates (Thermo Scientific, cat. #4332) and cultured at 37° C., 5% CO2 and 95% humidity. After 24 hours growth medium was carefully removed and replaced by 30 μl Opti-MEM (GIBCO, cat. #31985062) as assay buffer. To test the compounds an 8-point half-log compound dilution curve was generated in 100% DMSO starting from a 2 mM stock and compounds were then diluted 1:50 in Opti-MEM. 10 μl of compounds were then added to the wells containing 30 μl Opti-MEM resulting in a final assay concentration range from 10 μM to 0.003 μM in 0.5% DMSO. Compounds were tested at 8 concentrations in quadruplicate data points. […] Finally, cells were lysed with 20 μl of Triton/Luciferin solution and the signal of the emitted luminescence was recorded at the FLIPR^TETRA for 2 minutes. […]
`O=C(N[C@@H]1[C@@H](c2ccccc2)N(c2cnc3c(cnn3-c3ccc(F)cc3)c2)C(=O)C12CC2)C1CC1` (racemic) [Example 31, N-[rac-((6R,7S)-5-(1-(4-fluorophenyl)-1H-pyrazolo[3,4-b]pyridin-5-yl)-4-oxo-6-phenyl-5-azaspiro[2.4]heptan-7-yl)]cyclopropanecarboxamide] gave an IC50 of 100 to 1000 nM. Work on `O=C(N[C@@H]1[C@@H](c2ccccc2)N(c2ccc3c(cnn3-c3ccc(F)cc3)n2)C(=O)C12CC2)C1CC1` (racemic) [Example 33, N-[rac-((6R,7S)-5-(1-(4-fluorophenyl)-1H-pyrazolo[4,3-b]pyridin-5-yl)-4-oxo-6-phenyl-5-azaspiro[2.4]heptan-7-yl)]cyclopropanecarboxamide] yielded an IC50 of 1000 to 15000 nM. In the case of `C[C@@H]1C(=O)N(c2ccc3c(cnn3-c3ccc(F)cc3)c2)[C@H](c2ccccc2)[C@H]1NC(=O)C1CC1` (racemic) [Example 46, N-[rac-(2R,3S,4S)-1-[1-(4-Fluorophenyl)-1H-indazol-5-yl]-4-methyl-5-oxo-2-phenyl-pyrrolidin-3-yl]-cyclopropanecarboxylic acid amide], the IC50 is reported as under 100 nM. With `C[C@@H]1C(=O)N(c2ccc3c(cnn3-c3ccc(F)cc3)c2)[C@H](c2ccccc2Cl)[C@H]1NC(=O)C(C)(F)F` (racemic) [Example 47, N-[rac-(2R,3S,4S)-2-(2-Chlorophenyl)-1-[1-(4-fluorophenyl)-1H-indazol-5-yl]-4-methyl-5-oxo-pyrrolidin-3-yl]-2,2-difluoro-propionamide] the IC50 was under 100 nM. Compound `Cc1ncsc1C(=O)N[C@H]1[C@H](C)C(=O)N(c2ccc3c(cnn3-c3ccc(F)cc3)c2)[C@@H]1c1ccccc1` (racemic) [Example 60, N-[rac(2R,3S,4S)-1-[1-(4-Fluorophenyl)-1H-indazol-5-yl]-4-methyl-5-oxo-2-phenyl-pyrrolidin-3-yl]-4-methyl-thiazole-5-carboxylic acid amide] has an IC50 of 100 to 1000 nM. In the case of `C[C@@H]1C(=O)N(c2ccc3c(cnn3-c3ccc(F)cc3)c2)[C@H](c2ccccc2)[C@H]1NS(C)(=O)=O` (racemic) [Example 61, N-[rac-(2R,3S,4S)-1-[1-(4-Fluorophenyl)-1H-indazol-5-yl]-4-methyl-5-oxo-2-phenyl-pyrrolidin-3-yl]-methanesulfonic acid amide], the IC50 is reported as 100 to 1000 nM. Compound `Cc1cccc([C@@H]2[C@@H](NS(C)(=O)=O)[C@H](C)C(=O)N2c2ccc3c(cnn3-c3ccc(F)cc3)c2)c1` (racemic) [Example 62, N-[rac-(2R,3S,4S)-1-[1-(4-Fluorophenyl)-1H-indazol-5-yl]-4-methyl-2-m-tolyl-5-oxo-pyrrolidin-3-yl]-methanesulfonic acid amide] has an IC50 of 100 to 1000 nM. For `Cc1cccc([C@@H]2[C@@H](NC(=O)C3CC3)[C@H](C)C(=O)N2c2ccc3c(cnn3-c3ccc(F)cc3)c2)c1` (racemic) [Example 63, N-[rac-(2R,3S,4S)-1-[1-(4-Fluorophenyl)-1H-indazol-5-yl]-4-methyl-2-m-tolyl-5-oxo-pyrrolidin-3-yl]-cyclopropanecarboxylic acid amide], the IC50 was 100 to 1000 nM. In the case of `C[C@@H]1C(=O)N(c2ccc3c(cnn3-c3ccc(F)cc3)c2)[C@H](c2ccccc2)[C@H]1NC(=O)c1ccn(C)n1` (racemic) [Example 64, N-[rac-(2R,3S,4S)-1-[1-(4-Fluorophenyl)-1H-indazol-5-yl]-4-methyl-5-oxo-2-phenyl-pyrrolidin-3-yl]-1-methyl-1H-pyrazole-3-carboxylic acid amide], the IC50 is reported as under 100 nM. With `C[C@@H]1C(=O)N(c2ccc3c(cnn3-c3ccc(F)cc3)c2)[C@H](c2ccccc2)[C@H]1NC(=O)c1cccnc1` (racemic) [Example 65, N-[rac-(2R,3S,4S)-1-[1-(4-Fluorophenyl)-1H-indazol-5-yl]-4-methyl-5-oxo-2-phenyl-pyrrolidin-3-yl]-pyridine-3-carboxylic acid amide] the IC50 was under 100 nM. For `C[C@@H]1C(=O)N(c2ccc3c(cnn3-c3ccc(F)cc3)c2)[C@H](c2ccccc2)[C@H]1NC(=O)c1ncccn1` (racemic) [Example 66, N-[rac-(2R,3S,4S)-1-[1-(4-Fluorophenyl)-1H-indazol-5-yl]-4-methyl-5-oxo-2-phenyl-pyrrolidin-3-yl]-pyrimidine-2-carboxylic acid amide], the IC50 was under 100 nM. With `Cc1cccc([C@@H]2[C@@H](NC(=O)c3scnc3C)[C@H](C)C(=O)N2c2ccc3c(cnn3-c3ccc(F)cc3)c2)c1` (racemic) [Example 67, N-[rac-(2R,3S,4S)-1-[1-(4-Fluorophenyl)-1H-indazol-5-yl]-4-methyl-2-m-tolyl-5-oxo-pyrrolidin-3-yl]-4-methyl-thiazole-5-carboxylic acid amide] the IC50 was under 100 nM. Work on `Cc1cccc([C@@H]2[C@@H](NC(=O)c3cccnc3)[C@H](C)C(=O)N2c2ccc3c(cnn3-c3ccc(F)cc3)c2)c1` (racemic) [Example 68, N-[rac-(2R,3S,4S)-1-[1-(4-Fluorophenyl)-1H-indazol-5-yl]-4-methyl-2-m-tolyl-5-oxo-pyrrolidin-3-yl]-pyridine-3-carboxylic acid amide] yielded an IC50 of 100 to 1000 nM. `Cc1cccc([C@@H]2[C@@H](NC(=O)c3ncccn3)[C@H](C)C(=O)N2c2ccc3c(cnn3-c3ccc(F)cc3)c2)c1` (racemic) [Example 69, N-[rac-(2R,3S,4S)-1-[1-(4-Fluorophenyl)-1H-indazol-5-yl]-4-methyl-2-m-tolyl-5-oxo-pyrrolidin-3-yl]-pyrimidine-2-carboxylic acid amide] gave an IC50 of under 100 nM. `Cc1cccc([C@@H]2[C@@H](NC(=O)C3CC3)[C@@H](C)C(=O)N2c2ccc3c(cnn3-c3ccc(F)cc3)c2)c1` (racemic) [Example 70, N-[rac-(2R,3S,4R)-1-[1-(4-Fluorophenyl)-1H-indazol-5-yl]-4-methyl-2-m-tolyl-5-oxo-pyrrolidin-3-yl]-cyclopropanecarboxylic acid amide] showed an IC50 of under 100 nM. `Cc1cccc([C@@H]2[C@@H](NC(=O)c3scnc3C)[C@@H](C)C(=O)N2c2ccc3c(cnn3-c3ccc(F)cc3)c2)c1` (racemic) [Example 71, N-[rac-(2R,3S,4R)-1-[1-(4-Fluorophenyl)-1H-indazol-5-yl]-4-methyl-2-m-tolyl-5-oxo-pyrrolidin-3-yl]-4-methyl-thiazole-5-carboxylic acid amide] showed an IC50 of 100 to 1000 nM. For `Cc1cccc([C@@H]2[C@@H](NC(=O)c3ccn(C)n3)[C@@H](C)C(=O)N2c2ccc3c(cnn3-c3ccc(F)cc3)c2)c1` (racemic) [Example 72, N-[rac-(2R,3S,4R)-1-[1-(4-Fluorophenyl)-1H-indazol-5-yl]-4-methyl-2-m-tolyl-5-oxo-pyrrolidin-3-yl]-1-methyl-1H-pyrazole-3-carboxylic acid amide], the IC50 was under 100 nM. Work on `Cc1cccc([C@@H]2[C@@H](NC(=O)c3cccnc3)[C@@H](C)C(=O)N2c2ccc3c(cnn3-c3ccc(F)cc3)c2)c1` (racemic) [Example 73, N-[rac-(2R,3S,4R)-1-[1-(4-Fluorophenyl)-1H-indazol-5-yl]-4-methyl-2-m-tolyl-5-oxo-pyrrolidin-3-yl]-pyridine-3-carboxylic acid amide] yielded an IC50 of under 100 nM. In the case of `Cc1cccc([C@@H]2[C@@H](NC(=O)c3ncccn3)[C@@H](C)C(=O)N2c2ccc3c(cnn3-c3ccc(F)cc3)c2)c1` (racemic) [Example 74, N-[rac-(2R,3S,4R)-1-[1-(4-Fluorophenyl)-1H-indazol-5-yl]-4-methyl-2-m-tolyl-5-oxo-pyrrolidin-3-yl]-pyrimidine-2-carboxylic acid amide], the IC50 is reported as 100 to 1000 nM.
